Data taken from patent US20200231562A1, “NOVEL MACROLIDE ANTIBIOTICS” (HELMHOLTZ-ZENTRUM FÜR INFEKTIONSFORSCHUNG GMBH, priority 2014, published 2020).
≈ marks a conversion by molar mass, not a printed value. Read-outs that look alike come from different tables or passages of the source.

What was measured:
Assay type in all cases: cell-based
[1] = test system: S. aureus Newman in PMA-differentiated human THP-1 cell line (macrophages); test: Intra-macrophage activity
Text: The PMA-differentiated human THP-1 cell line (macrophages) was used as cellular host for infection with S. aureus Newman at an MOI (multiplicity of infection) of 10. […] Intracellular bacteria were recovered and serial dilutions were streaked out on CASO-Agar for cfu counting. The reference drug rifampicin reduced the number of intracellular bacteria by ca. 4 logs (at 8×MIC).

[2] = test system: Staphylococcus aureus Mu50 (MRSA/VRSA) ATCC 700699; test: MIC by microbroth dilution; conditions: 16 h, 30° C., n.i. = no inhibition up to 67 μg/ml
Experimental: (§1) Bacterial strains. Bacterial wildtype strains used in susceptibility assays were either part of HZI's strain collection or purchased from the German Collection of Microorgansims and Cell Cultures (Deutsche Sammlung von Mikroorganismen und Zellkulturen, DSMZ).
(§2) Minimum inhibitory concentration (MIC) was determined by microbroth dilution. In brief, overnight cultures of bacteria (EBS medium) were diluted to OD600 0.01. Disciformycin A (1) or B (2) dissolved in DMSO was added directly to the cultures in 96-well plates (Sarstedt, flat bottom) in duplicate and the compound was tested in serial dilution. […] After 16 h incubation at 900 rpm and 30° C. on a microplate shaker (Titramax, Heidolph) absorbance at 600 nm was measured using a microplate reader (POLARstar Omega, BMG Labtech). MIC values were determined by sigmoidal curve fitting.

[3] = test system: Bacillus subtilis DSM 10; test: MIC by microbroth dilution; conditions: Bacillus subtilis, DSM10, 16 h, 30° C., n.i. = no inhibition up to 67 μg/ml, read-out: MIC
Experimental: as §1, §2

[4] = test system: Mycobacterium sp. DSM 43270; test: MIC by microbroth dilution; conditions: 16 h, 30° C., n.i. = no inhibition up to 67 μg/ml
Experimental: as §1, §2

[5] = test system: Micrococcus luteus DSM 20030; test: MIC by microbroth dilution; conditions: Micrococcus luteus, DSM20030, 16 h, 30° C., n.i. = no inhibition up to 67 μg/ml, read-out: MIC
Experimental: as §1, §2

[6] = test system: Staphylococcus aureus (MRSA) DSM-11822; test: MIC by microbroth dilution; conditions: microbroth dilution, 16 h, 30° C., n.i. = no inhibition up to 67 μg/ml
Experimental: as §1, §2

[7] = test system: Pseudomonas aeruginosa DSM 50071; test: MIC by microbroth dilution; conditions: 16 h, 30° C., n.i. = no inhibition up to 67 μg/ml
Experimental: as §1, §2

[8] = test system: Staphylococcus aureus N315 (MRSA); test: MIC by microbroth dilution; conditions: 16 h, 30° C., n.i. = no inhibition up to 67 μg/ml
Experimental: as §1, §2

[9] = test system: Escherichia coli DSM 1116; test: MIC by microbroth dilution; conditions: 16 h, 30° C., n.i. = no inhibition up to 67 μg/ml
Experimental: as §1, §2

[10] = test system: Nocardioides simplex DSM 20130; test: MIC by microbroth dilution; conditions: Pimelobacter simplex, DSM20130, 16 h, 30° C., n.i. = no inhibition up to 67 μg/ml, read-out: MIC
Experimental: as §1, §2

[11] = test system: Paenibacillus polymyxa DSM 36; test: MIC by microbroth dilution; conditions: Paenibacillus polymyxa, DSM36, 16 h, 30° C., n.i. = no inhibition up to 67 μg/ml, read-out: MIC
Experimental: as §1, §2

[12] = test system: Staphylococcus aureus Newman; test: MIC by microbroth dilution; conditions: 16 h, 30° C., n.i. = no inhibition up to 67 μg/ml
Experimental: as §1, §2

[13] = test system: Chromobacterium violaceum DSM 30191; test: MIC by microbroth dilution; conditions: 16 h, 30° C., n.i. = no inhibition up to 67 μg/ml
Experimental: as §1, §2

[14] = test system: Staphylococcus camosus DSM 20501; test: MIC by microbroth dilution; conditions: 30° C., n.i. = no inhibition up to 67 μg/ml
Experimental: as §1, §2

[15] = test system: Staphylococcus aureus DSM 346; test: MIC by microbroth dilution; conditions: Staphylococcus aureus, DSM346, 16 h, 30° C., n.i. = no inhibition up to 67 μg/ml, read-out: MIC
Experimental: as §1, §2

[16] = test system: Mycobacterium diemhoferi DSM 43524; test: MIC by microbroth dilution; conditions: Mycobacterium, DSM43524, 16 h, 30° C., n.i. = no inhibition up to 67 μg/ml, read-out: MIC
Experimental: as §1, §2

[17] = test system: Mycobacterium vaccae IMET 10670; test: Agar diffusion assay; conditions: Mycolicibacterium vaccae, IMET10670; 50 μL of 0.5 mg in 1 mL methanol per 7 mm hole; n.a. = no activity observed; read-out: diameter of inhibition zone
Experimental: (§3) Antimicrobial activities of the gulmirecins were determined in a primary screen against Bacillus subtilis ATCC 6633, Staphylococcus aureus SG511, Staphylococcus auricularis DSM 20609, Mycobacterium vaccae IMET 10670, Pseudomonas aeruginosa K799/61, Escherichia coli SG458, Sporobolomyces salmonicolor SBUG 549, Candida albicans ATCC14053 and Penicillium notatum JP 36. To this end, holes with 7 mm diameter were aseptically punched in the respective agar medium. Subsequently, the agar plates were inoculated with the test organisms. 0.5 mg of every test compound was dissolved in 1 mL of methanol, and 50 μL of this solution was transferred to a single hole. Ciprofloxacin and amphotericin B served as positive controls. After evaporation of the solvent, the agar plates were incubated depending on the growth conditions of the test organisms. […] The test results are shown in Table 6 below, wherein the given values represent the diameters of the respective inhibition zone in the agar diffusion assay.

[18] = test system: Bacillus subtilis ATCC 6633; test: Agar diffusion assay; conditions: ATCC6633, 50 μL of 0.5 mg in 1 mL methanol per 7 mm hole, n.a. = no activity observed, read-out: diameter of inhibition zone
Experimental: as §3

[19] = Staphylococcus aureus, read-out: MIC

C/C=C(/C)[C@H]1C/C=C(\C)[C@@H](O[C@H]2O[C@H](CO)[C@@H](O)[C@@H]2O)[C@H](OC(=O)CC(C)C)C(=O)C/C=C(/C)C(=O)O1 [Compound 1, disciformycin A]
reduction of the number of intracellular bacteria ([1]; 18 h, MOI 10, cfu counting, tested at 1×, 4× and 8×MIC): 3 logs
cytotoxicity towards THP-1 host cells ([1]; 18 h treatment of infected macrophages): without causing any apparent cytotoxicity
MIC [2]: 2.0 µg/mL (≈ 3.81 µM)
MIC [2, 19]: 2 µg/mL (≈ 3.81 µM)
MIC [3]: 4.2 µg/mL (≈ 8.01 µM)
MIC [4]: n.i.
MIC [5]: 67 µg/mL (≈ 128 µM)
MIC [6, 19]: 4 µg/mL (≈ 7.62 µM)
MIC [6]: 4.0 µg/mL (≈ 7.62 µM)
MIC [7]: n.i.
MIC [8]: 8.0 µg/mL (≈ 15.2 µM)
MIC ([8]; Staphylococcus aureus, MRSA, read-out: MIC): 8 µg/mL (≈ 15.2 µM)
MIC [9]: n.i.
MIC [10]: 33.3 µg/mL (≈ 63.5 µM)
MIC [11]: 16.6 µg/mL (≈ 31.6 µM)
MIC [12]: 8.0 µg/mL (≈ 15.2 µM)
MIC ([12]; Staphylococcus aureus, NEWMAN, read-out: MIC): 8 µg/mL (≈ 15.2 µM)
MIC [13]: n.i.
MIC ([14]; 16 h): 7.8 µg/mL (≈ 14.9 µM)
MIC ([14]; Staphylococcus, DSM20501, 16 h, read-out: MIC): 7.8 µg/mL (≈ 14.9 µM)
MIC [15]: 16.6 µg/mL (≈ 31.6 µM)
MIC [16]: 33.3 µg/mL (≈ 63.5 µM)

C/C=C(/C)[C@H]1C/C=C(\C)[C@@H](O[C@H]2O[C@H](CO)[C@@H](O)[C@@H]2O)[C@H](OC(=O)CC(C)C)C(=O)C[C@@H](O)[C@H](C)C(=O)O1 [Compound 3, gulmirecin A]
zone of inhibition at 25 µg/hole [17]: 17 mm
zone of inhibition at 25 µg/hole [18]: 35 mm
